In ChEMBL document CHEMBL5325445, “Discovery and development of small-molecule heparanase inhibitors” (Bioorg Med Chem, 2023) one finds IC50 and inhibition data, which are given here for 19 compounds.

Where only a bound is given, the exact number is not on record here.

The term IC50 denotes the concentration that inhibits the measured activity by half. One may read the inhibition as how much of the control response was suppressed.

One test concerns the target T1, Heparanase (Homo sapiens, UniProt Q9Y251).
T1 sequence (Q9Y251 whole entry): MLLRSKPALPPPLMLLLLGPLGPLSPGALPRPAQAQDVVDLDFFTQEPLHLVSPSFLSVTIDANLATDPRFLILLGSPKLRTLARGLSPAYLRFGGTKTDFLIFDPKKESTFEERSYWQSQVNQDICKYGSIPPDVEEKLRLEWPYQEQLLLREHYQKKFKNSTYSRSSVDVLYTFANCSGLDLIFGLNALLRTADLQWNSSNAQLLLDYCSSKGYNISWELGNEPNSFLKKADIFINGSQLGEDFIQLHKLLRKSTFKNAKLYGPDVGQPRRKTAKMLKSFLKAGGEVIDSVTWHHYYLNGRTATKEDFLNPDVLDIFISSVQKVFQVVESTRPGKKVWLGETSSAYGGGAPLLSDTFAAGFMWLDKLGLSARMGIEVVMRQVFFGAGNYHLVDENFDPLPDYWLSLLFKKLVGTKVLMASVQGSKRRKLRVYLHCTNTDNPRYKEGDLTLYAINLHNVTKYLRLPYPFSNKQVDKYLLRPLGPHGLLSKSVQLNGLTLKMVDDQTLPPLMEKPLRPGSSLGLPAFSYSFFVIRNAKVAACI
The test is described as follows: Inhibition of heparanase (unknown origin).
Conditions: not given
Compound `COc1cccc(-n2nc(C(=O)O)cc2-c2ccc(C3CCCCC3)c(Cl)c2)c1` returned an IC50 of 10000 nM.

A further test deals with HT-1080. The test is described as follows: Inhibition of cell invasion in human HT-1080 cells.
Conditions: not given
Compound `CCCCCCCCCCCCCCCC(=O)C1=C(OCc2ccccc2)[C@@H](CO)OC1=O` came in with an IC50 of 1500 nM.

System in the next test: not listed separately
The test is described as follows: Anti-angiogenic activity in human endothelial cells assessed as reduction in cell growth.
Conditions: not given
Take `COc1ccc(N2C(=O)c3ccc(C(=O)O)cc3C2=O)cc1-c1nc2cc(-c3cc(F)cc(F)c3)ccc2o1`: the IC50 was below 10000 nM.
The same measure, in the same setting: to `CCCNc1ccc(N2C(=O)c3ccc(C(=O)O)cc3C2=O)cc1-c1nc2cc(-c3ccc(Cl)cc3)ccc2o1` belongs 200 nM.
Same read-out and setting: to `COc1ccc(-c2nc3cc(-c4ccc(F)cc4)ccc3o2)cc1N1C(=O)c2ccc(C(=O)O)cc2C1=O` belongs below 10000 nM; to `COc1ccc(N2C(=O)c3ccc(C(=O)O)cc3C2=O)cc1-c1nc2cc(-c3ccc4c(c3)OCO4)ccc2o1`, 750 nM; to `COCCOc1ccc(-c2nc3cc(-c4ccccc4)ccc3o2)cc1N1C(=O)c2ccc(C(=O)O)cc2C1=O`, 5000 nM.
Consider `CCCNc1ccc(N2C(=O)c3ccc(C(=O)O)cc3C2=O)cc1-c1nc2cc(-c3ccc(OC(F)(F)F)cc3)ccc2o1`, for which the IC50 was determined as 200 nM.
`CCCNc1ccc(N2C(=O)c3ccc(C(=O)O)cc3C2=O)cc1-c1nc2cc(-c3ccc(C(F)(F)F)cc3)ccc2o1`: the IC50 came to 200 nM.
For the compound `CCCNc1ccc(N2C(=O)c3ccc(C(=O)O)cc3C2=O)cc1-c1nc2cc(-c3ccc(F)cc3)ccc2o1`, the concentration for half-maximal inhibition (IC50) was determined as 200 nM.
Still for that read-out and setting: the result for `CCCNc1ccc(N2C(=O)c3ccc(C(=O)O)cc3C2=O)cc1-c1nc2cc(-c3cccc(Cl)c3)ccc2o1` reads 200 nM; that for `CCCNc1ccc(N2C(=O)c3ccc(C(=O)O)cc3C2=O)cc1-c1nc2cc(-c3ccc(F)c(Cl)c3)ccc2o1`, 200 nM.
Still for that read-out and setting: to `COc1ccc(-c2nc3cc(-c4cccc(-c5ccccc5)c4)ccc3o2)cc1N1C(=O)c2ccc(C(=O)O)cc2C1=O` belongs 1000 nM; to `O=C(O)c1ccc2c(c1)C(=O)N(c1cccc(-c3nc4cc(-c5cccc(-c6ccccc6)c5)ccc4o3)c1)C2=O`, 1000 nM.

System in another test: not listed separately
The test is described as follows: Antiproliferative activity against mouse Lewis lung carcinoma cells assessed as reduction in cell viability measured after 24 hrs by MTT assay. The class given is functional, cell-based.
Conditions: not given
(Tetrazolium dyes change colour on reduction, which living cells bring about.)
As for `Oc1c(I)cc(I)cc1-c1nn2c(-c3ccccc3)nnc2s1`, the half-maximal inhibitory concentration (IC50) was 8300 nM.
The same measure, in the same setting: the result for `Oc1ccc(I)cc1-c1nn2c(-c3ccccc3)nnc2s1` reads 16600 nM; that for `O=C(Nn1c(-c2ccccc2)n[nH]c1=S)c1cc(I)cc(I)c1O`, 11800 nM.

A further test relates to HepG2. The test is described as follows: Antiproliferative activity against human HepG2 cells assessed as reduction in cell viability measured after 24 hrs by MTT assay. The class given is functional, cell-based. Conditions: HepG2, 24 h.
Regarding `Oc1c(I)cc(I)cc1-c1nn2c(-c3ccccc3)nnc2s1`, the IC50 was 11900 nM.
Same read-out and setting: to `Oc1ccc(I)cc1-c1nn2c(-c3ccccc3)nnc2s1` belongs 18400 nM; to `O=C(Nn1c(-c2ccccc2)n[nH]c1=S)c1cc(I)cc(I)c1O`, 14900 nM.

A further test relates to U2OS. The test is described as follows: Anti-invasive activity against human U2OS cells assessed as cell invasion at 2.5 uM.
Conditions: not given
The test is classed as functional.
Take `O=C(Nc1ccc(-c2nc3ccccc3[nH]2)cc1)c1ccc(C(=O)Nc2ccc(-c3nc4ccccc4[nH]3)cc2)cc1`: the inhibition at 2.5 µM came to 80%.
The same measure, in the same setting: to `O=C(O)c1ccc2c(c1)C(=O)N(c1ccc(NC(=O)c3cccc(C(=O)Nc4ccc(N5C(=O)c6ccc(C(=O)O)cc6C5=O)cc4Cl)c3)c(Cl)c1)C2=O` belongs 75%.
